From patent US20080131534A1, “USE OF A PLANT EXTRACT OR PLANT JUICE” (Melbrosin International Produktions- und Vertriebs GesmbH & …, priority 2006, published 2008)

What follows are molecules tested against T1, PPAR-gamma (Homo sapiens, UniProt P37231) (assay: Polar Screen PPAR Competitive Assay (fluorescence polarization ligand binding)). Settings: not given.
T1 construct: purchased Invitrogen
T1 sequence (P37231 238-503 limits assumed): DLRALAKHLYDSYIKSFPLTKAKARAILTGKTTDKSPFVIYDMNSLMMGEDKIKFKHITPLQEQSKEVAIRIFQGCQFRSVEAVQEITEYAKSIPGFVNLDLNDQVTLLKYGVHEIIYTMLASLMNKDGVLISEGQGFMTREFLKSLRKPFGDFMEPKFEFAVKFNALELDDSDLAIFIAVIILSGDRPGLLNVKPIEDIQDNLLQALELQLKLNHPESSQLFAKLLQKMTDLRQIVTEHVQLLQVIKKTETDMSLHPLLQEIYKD

| SMILES | EC50 [µM] |
| --- | --- |
| O=C(/C=C/c1ccccc1)c1ccccc1O [2′-Hydroxychalcone] | 20 |
| C=CCc1ccc2c(c1)OCO2 [Safrol] | 2250 |
| O=C(O)c1cc(O)c(O)c(O)c1 [Gallic acid] | 128 |
| O=c1c(-c2ccc(O)cc2)coc2cc(O)cc(O)c12 [Genistein] | 22 |

Same assay, conditions: EC50, Table 1, tested substances

| SMILES | EC50 [µM] |
| --- | --- |
| Cc1ccc(C(C)C)c(O)c1 [Thymol] | 695 |

Same assay, conditions: EC50, Table 3, active substances in Oregano

| SMILES | EC50 [µM] |
| --- | --- |
| Cc1ccc(C(C)C)c(O)c1 [Thymol] | 695 |

Same assay, conditions: Table 1, result in words

| SMILES | EC50 |
| --- | --- |
| COc1cc(/C=C/C(=O)CC(=O)/C=C/c2ccc(O)c(OC)c2)ccc1O [Curcumin] | does not bind |
| c1cc2c(cc1[C@H]1OC[C@H]3[C@@H]1CO[C@@H]3c1ccc3c(c1)OCO3)OCO2 [Sesamin] | does not bind |
| O=C(/C=C/c1ccccc1)c1ccccc1O [2′-OH-Chalcone] | does not bind |
| COc1cc(/C=C/C(=O)O)ccc1O [Ferrulic acid] | does not bind |
| O=c1c(O[C@@H]2O[C@H](CO)[C@H](O)[C@H](O)[C@H]2O)c(-c2ccc(O)c(O)c2)oc2cc(O)cc(O)c12 [Hyperoside] | does not bind |

Same assay, conditions: Table 1, result in words; *tested to a concentration of 0.1 M

| SMILES | EC50 |
| --- | --- |
| C[C@]12CC[C@@H]3c4ccc(O)cc4CC[C@H]3[C@@H]1CCC2=O [Estron] | does not bind* |
| O=c1c(-c2ccc(O)cc2)coc2cc(O[C@@H]3O[C@H](CO)[C@@H](O)[C@H](O)[C@H]3O)ccc12 [Daidzin] | does not bind* |
| Cc1ccc(C(C)C)cc1 [p-Cymene] | does not bind* |
| COc1cc(O)c2c(=O)c(-c3ccc(O)cc3)coc2c1 [Prunetin] | does not bind* |
| O=c1c(-c2ccc(O)cc2)coc2cc(O[C@@H]3O[C@H](CO)[C@@H](O)[C@H](O)[C@H]3O)cc(O)c12 [Genistin] | does not bind* |
| COc1ccc(-c2coc3cc(O[C@@H]4O[C@H](CO)[C@@H](O)[C@H](O)[C@H]4O)cc(O)c3c2=O)cc1 [Sissotrin] | does not bind* |
| O=C(O)/C=C/c1ccc(O)c(O)c1 [Caffeic acid] | does not bind* |
| O=C(O)c1ccc(O)c(O)c1 [Protocatechuic acid] | does not bind* |
| C=CC(C)=CCC=C(C)C [Ocimene] | does not bind* |
| C=CCSCC=C [Diallylsulfide] | does not bind* |
| Oc1cc(O)c2c(c1)O[C@H](c1ccc(O)c(O)c1)[C@H](O)[C@H]2c1c(O)cc(O)c2c1O[C@H](c1ccc(O)c(O)c1)[C@H](O)C2 [Procyanidin B2] | does not bind* |
| C/C1=C\CC/C(C)=C/CC(C)(C)/C=C/C1 [α-Humulene] | does not bind* |
| C=CC(C)(O)CCC=C(C)C (stereo not shown) [Linalool] | does not bind* |
| COc1ccc(-c2coc3cc(O[C@@H]4O[C@H](CO)[C@@H](O)[C@H](O)[C@H]4O)ccc3c2=O)cc1 [Ononin] | does not bind* |
| O=C(O)/C=C/c1ccccc1O [o-Coumaric acid] | does not bind* |
| COc1ccc(-c2coc3cc(O)ccc3c2=O)cc1 [Formononetin] | does not bind* |
| C=C1CC/C=C(\C)CC[C@@H]2[C@@H]1CC2(C)C [β-Caryophyllene] | does not bind* |
| CCCCCC(C)=O [2-Heptanon] | does not bind* |
| O=c1c(-c2ccc(O)cc2)coc2c([C@@H]3O[C@H](CO)[C@@H](O)[C@H](O)[C@H]3O)c(O)ccc12 [Puerarin] | does not bind* |
| COc1ccc(-c2cc(=O)c3c(O)cc(O[C@@H]4O[C@H](CO[C@@H]5O[C@@H](C)[C@H](O)[C@@H](O)[C@H]5O)[C@@H](O)[C@H](O)[C@H]4O)cc3o2)cc1O [Diosmin] | does not bind* |

Same assay, conditions: Table 1, tested substances; read-out: EC50

| SMILES | EC50 [µM] |
| --- | --- |
| O=C(Nc1ccccc1)c1cc([N+](=O)[O-])ccc1Cl [CW9662, 2-Chloro-5-nitrobenanilide, reference compound] | 0.0107 |
| O=C(O)/C=C/c1ccc(O)cc1 [p-Coumaric acid] | > 500 |
| O=C1C[C@@H](c2ccc(O)c(O)c2)Oc2cc(O)cc(O)c21 [Eriodictyol] | 66 |
| O=c1cc(-c2ccc(O)cc2)oc2cc(O)cc(O)c12 [Apigenin] | 104 |
| O=C(CCc1ccc(O)cc1)c1c(O)cc(O)cc1O[C@@H]1O[C@H](CO)[C@@H](O)[C@H](O)[C@H]1O [Phloridzin] | > 500 |
| O=c1c(O)c(-c2ccccc2)oc2cc(O)cc(O)c12 [Galangin] | 143 |
| O=c1c(O)c(-c2ccc(O)cc2)oc2cc(O)cc(O)c12 [Kaempferol] | 467 |
| O=C(/C=C/c1ccccc1O)c1ccccc1 [2-Hydroxychalcone] | 2.9 |
| O=C1OC[C@H](Cc2cccc(O)c2)[C@H]1Cc1cccc(O)c1 [Enterolacton] | > 500 |
| O=C(CCc1ccc(O)cc1)c1c(O)cc(O)cc1O [Phloretin] | 20 |
| O=c1cc(-c2ccc(O)c(O)c2)oc2cc(O)cc(O)c12 [Luteolin] | 4 |
| O=CC=Cc1ccccc1 [Cinnamaldehyde] | 10.4 |
| COc1ccc(-c2coc3cc(O)cc(O)c3c2=O)cc1 [Biochanin A] | 20 |
| Oc1ccc([C@H]2COc3cc(O)ccc3C2)cc1 [Equol] | 60 |
| O=c1c(O)c(-c2ccccc2)oc2ccccc12 [3-Hydroxyflavon] | > 500 |
| OC[C@H](Cc1cccc(O)c1)[C@H](CO)Cc1cccc(O)c1 [Enterodiol] | > 500 |
| Oc1cc(O)c2c(c1)O[C@H](c1ccc(O)c(O)c1)[C@H](O)C2 [Epicatechin] | > 500 |
| O=c1c(O)c(-c2ccc(O)c(O)c2)oc2cc(O)cc(O)c12 [Quercetin] | 2.6 |
| CCOC(=O)C=Cc1ccccc1 [Ethylcinnamate] | 2700 |
| C=CCc1ccc(O)c(OC)c1 [Eugenol] | 420 |
| O=C(/C=C/c1ccc(O)c(O)c1)O[C@H](Cc1ccc(O)c(O)c1)C(=O)O [Rosmarinic acid] | 7.8 |
| COc1ccc([C@@H]2CC(=O)c3c(O)cc(O[C@@H]4O[C@H](CO[C@@H]5O[C@@H](C)[C@H](O)[C@@H](O)[C@H]5O)[C@@H](O)[C@H](O)[C@H]4O)cc3O2)cc1O [Hesperidin] | > 500 |
| O=c1c(OC2OC(CO)C(O)C(O)C2O)c(-c2ccc(O)c(O)c2)oc2cc(O)cc(O)c12 (stereo not shown) [Isoquercetrin] | 52 |
| O=c1c(-c2ccc(O)cc2)coc2cc(O)ccc12 [Daidzein] | 470 |
| O=c1c(O)c(-c2cc(O)c(O)c(O)c2)oc2cc(O)cc(O)c12 [Myricetin] | 53 |
| CC(C(=O)c1ccc(O)cc1O)c1ccc(O)cc1 (stereo not shown) [ODMA, O-Desmethyl-angolenain] | 67 |
| OCc1c[nH]c2ccccc12 [Indol-3-Carbinol] | > 500 |
| O=c1oc2cc(O)ccc2c2oc3cc(O)ccc3c12 [Coumestrol] | 8.5 |
| COc1cc(CNC(=O)CCCC/C=C/C(C)C)ccc1O [Capsaicin] | > 500 |

Same assay, conditions: Table 3, active substances in Oregano; read-out: EC50

| SMILES | EC50 [µM] |
| --- | --- |
| O=c1cc(-c2ccc(O)cc2)oc2c([C@@H]3O[C@H](CO)[C@@H](O)[C@H](O)[C@H]3O)c(O)cc(O)c12 [Vitexin] | 156 |
| O=C(O)/C=C/c1ccc(O)cc1 [p-Coumaric acid] | > 500 |
| O=C1C[C@@H](c2ccc(O)c(O)c2)Oc2cc(O)cc(O)c21 [Eriodictyol] | 66 |
| O=c1cc(-c2ccc(O)cc2)oc2cc(O)cc(O)c12 [Apigenin] | 104 |
| O=c1c(O)c(-c2ccc(O)cc2)oc2cc(O)cc(O)c12 [Kaempferol] | 467 |
| C[C@H]1[C@H](C)CC[C@]2(C(=O)O)CC[C@]3(C)C(=CC[C@@H]4[C@@]5(C)CC[C@H](O)C(C)(C)[C@@H]5CC[C@]43C)[C@H]12 [Ursolsäure] | > 500 |
| COc1cc(C(=O)O)ccc1O [Vanillic acid] | > 500 |
| O=c1cc(-c2ccc(O)c(O)c2)oc2cc(O)cc(O)c12 [Luteolin] | 4 |
| O=C1c2c(O)cc(O)cc2O[C@H](c2ccc(O)c(O)c2)[C@H]1O [Taxifolin] | 275 |
| COc1ccc(-c2coc3cc(O)cc(O)c3c2=O)cc1 [Biochanin A] | 20 |
| O=C(/C=C/c1ccc(O)c2c1[C@H](C(=O)O[C@H](Cc1ccc(O)c(O)c1)C(=O)O)[C@@H](c1ccc(O)c(O)c1)O2)O[C@H](Cc1ccc(O)c(O)c1)C(=O)O [Salvianolic acid B] | 292 |
| O=c1c(O)c(-c2ccc(O)c(O)c2)oc2cc(O)cc(O)c12 [Quercetin] | 2.6 |
| O=C(/C=C/c1ccc(O)c(O)c1)O[C@H](Cc1ccc(O)c(O)c1)C(=O)O [Rosmarinic acid] | 7.8 |
| O=C1C[C@@H](c2ccc(O)cc2)Oc2cc(O)cc(O)c21 [Narigenin] | 81 |
| O=c1cc(-c2ccc(O)cc2)oc2cc(OC3O[C@H](CO)[C@@H](O)[C@H](O)[C@H]3O)cc(O)c12 (stereo partly shown) [Apigenin-7Glycoside] | > 500 |
| O=c1c(OC2OC(CO)C(O)C(O)C2O)c(-c2ccc(O)c(O)c2)oc2cc(O)cc(O)c12 (stereo not shown) [Isoquercetrin] | 53 |
